From patent publication US20230172936A1, “VCP/p97 INHIBITOR FOR THE TREATMENT OF CANCER” (Cleave Therapeutics, Inc., priority 2020, published 2023)

How the values were obtained:
Assay in all cases: Ex-vivo cytotoxicity by Cell Titer Glo
Assay type in all cases: cell-based
CTG-2227 = conditions: Homo sapiens, 144 h; CTG-2227, 6 days
Experimental: (§1) Acute myelogenous leukemia (AML) is the most common acute leukemia in adults. A hematologic cancer, the disease is highly heterogeneous, with multiple subtypes. About 30% of AML cases harbor a FLT3/ITD mutation making the disease highly proliferative and more aggressive with a high risk of relapse.
(§2) Triplicate wells with media only and duplicate wells of vehicle (0.2% DMSO) were used as negative controls. […] To measure proliferation, untreated cells at days 0 and 6 were evaluated via Cell Titer Glo.
(§3) Protocol: • 1. AML cells were thawed and resuspended in enriched media composed of StemSpan™ Serum-Free Expansion Media (SFEM), 2% heat-inactivated FBS, StemSpan™ CC110 and recombinant human IL-3. • 2. 20,000 cells/well in 100 μL volume were plated on study day 0. • 3. […] Cells were incubated in the presence of drug for 6 days. • 5. On day 6, plates were removed from the incubator and equilibrated to room temperature for 20 minutes. 100 μL/well Cell Titer Glo was added to each well and incubated for 10 minutes before plate reading. • 6. Luminescence was recorded using Tecan Infinite M Plex plate reader.

CTG-2228 = conditions: Homo sapiens, 144 h; CTG-2228, 6 days
Experimental: as §1, §2, §3

CTG-2229 = conditions: Homo sapiens, 144 h; CTG-2229, 6 days
Experimental: as §1, §2, §3

CTG-2232 = conditions: Homo sapiens, 144 h; CTG-2232, 6 days
Experimental: as §1, §2, §3

CTG-2233 = conditions: Homo sapiens, 144 h; CTG-2233, 6 days
Experimental: as §1, §2, §3

CTG-2234 = conditions: Homo sapiens, 144 h; CTG-2234, 6 days
Experimental: as §1, §2, §3

CTG-2235 = conditions: Homo sapiens, 144 h; CTG-2235, 6 days
Experimental: as §1, §2, §3

CTG-2239 = conditions: Homo sapiens, 144 h; CTG-2239, 6 days
Experimental: as §1, §2, §3

CTG-2240 = conditions: Homo sapiens, 144 h; CTG-2240, 6 days
Experimental: as §1, §2, §3

CTG-2242 = conditions: Homo sapiens, 144 h; CTG-2242, 6 days
Experimental: as §1, §2, §3

CTG-2243 = conditions: Homo sapiens, 144 h; CTG-2243, 6 days
Experimental: as §1, §2, §3

CTG-2452 = conditions: Homo sapiens, 144 h; CTG-2452, 6 days
Experimental: as §1, §2, §3

CTG-2454 = conditions: Homo sapiens, 144 h; CTG-2454, 6 days
Experimental: as §1, §2, §3

CTG-2455 = conditions: Homo sapiens, 144 h; CTG-2455, 6 days
Experimental: as §1, §2, §3

CTG-2456 = conditions: Homo sapiens, 144 h; CTG-2456, 6 days
Experimental: as §1, §2, §3

CTG-2457 = conditions: Homo sapiens, 144 h; CTG-2457, 6 days
Experimental: as §1, §2, §3

CTG-2502 = conditions: Homo sapiens, 144 h; CTG-2502, 6 days
Experimental: as §1, §2, §3

CTG-2701 = conditions: Homo sapiens, 144 h; CTG-2701, 6 days
Experimental: as §1, §2, §3

CTG-2702 = conditions: Homo sapiens, 144 h; CTG-2702, 6 days
Experimental: as §1, §2, §3

CTG-2704 = conditions: Homo sapiens, 144 h; CTG-2704, 6 days
Experimental: as §1, §2, §3

CTG-2774 = conditions: Homo sapiens, 144 h; CTG-2774, 6 days
Experimental: as §1, §2, §3

CTG-2775 = conditions: Homo sapiens, 144 h; CTG-2775, 6 days
Experimental: as §1, §2, §3

CTG-2901 = conditions: Homo sapiens, 144 h; CTG-2901, 6 days
Experimental: as §1, §2, §3

CTG-3438 = conditions: Homo sapiens, 144 h; CTG-3438, 6 days
Experimental: as §1, §2, §3

CTG-3439 = conditions: Homo sapiens, 144 h; CTG-3439, 6 days
Experimental: as §1, §2, §3

CTG-3440 = conditions: Homo sapiens, 144 h; CTG-3440, 6 days
Experimental: as §1, §2, §3

Cc1cc2c(C(N)=O)cccc2n1-c1nc2c(c(NCc3ccccc3)n1)CCCN2 [Compound 1, 1-(4-(Benzylamino)-5,6,7,8-tetrahydropyrido[2,3-d]pyrimidin-2-yl)-2-methyl-1H-indole-4-carboxamide] showed an IC50 (CTG-2227) of 274 nM, an IC50 (CTG-2228) of 568 nM and an IC50 (CTG-2229) of 752 nM. It also gave an IC50 (CTG-2232) of 275 nM, an IC50 (CTG-2233) of 412 nM and an IC50 (CTG-2234) of 485 nM. It also gave an IC50 (CTG-2235) of 362 nM, an IC50 (CTG-2239) of 395 nM and an IC50 (CTG-2240) of 500 nM. For the same compound, the IC50 (CTG-2242) was 501 nM, the IC50 (CTG-2243) was 460 nM and the IC50 (CTG-2452) was 512 nM. The IC50 (CTG-2454) was 208 nM, the IC50 (CTG-2455) was 220 nM and the IC50 (CTG-2456) was 212 nM. For the same compound, the IC50 (CTG-2457) was 627 nM, the IC50 (CTG-2502) was 480 nM and the IC50 (CTG-2701) was 395 nM. For the same compound, the IC50 (CTG-2702) was 427 nM, the IC50 (CTG-2704) was 666 nM and the IC50 (CTG-2774) was 327 nM. It also gave an IC50 (CTG-2775) of 437 nM, an IC50 (CTG-2901) of 446 nM and an IC50 (CTG-3438) of 263 nM. The IC50 (CTG-3439) was 691 nM and the IC50 (CTG-3440) was 332 nM.
